Experiments:
Experiment in all cases: relative viability (nuclei count vs DMSO), 5 days (fraction); higher = more cells survive
Midostaurin + Linsitinib = compound: CO[C@@H]1[C@H](N(C)C(=O)c2ccccc2)C[C@H]2O[C@]1(C)n1c3ccccc3c3c4c(c5c6ccccc6n2c5c31)C(=O)NC4 [Midostaurin] + C[C@]1(O)C[C@@H](c2nc(-c3ccc4ccc(-c5ccccc5)nc4c3)c3c(N)nccn32)C1 [Linsitinib] (partner 1 µM)
Summary of the method: (§1)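 Each reported value is a median over duplicate plates. It expresses relative viability: treated-well nuclei count divided by vehicle-well nuclei count. Lung cancer cell lines in 1536-well plates were dosed by pin tool a day after seeding, alone with one drug or with a fixed anchor-drug dose plus five library-drug doses (not always all listed) in √10 steps, and nuclei were counted after 5 days.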

Midostaurin + Crizotinib = compound: CO[C@@H]1[C@H](N(C)C(=O)c2ccccc2)C[C@H]2O[C@]1(C)n1c3ccccc3c3c4c(c5c6ccccc6n2c5c31)C(=O)NC4 [Midostaurin] + C[C@@H](Oc1cc(-c2cnn(C3CCNCC3)c2)cnc1N)c1c(Cl)ccc(F)c1Cl [Crizotinib] (partner 1 µM)
Summary of the method: as §1

[1] = compound: COc1cc(-c2nn([C@H]3CC[C@H](N4CCN(C(C)=O)CC4)CC3)c3ncnc(N)c23)ccc1NC(=O)c1cc2ccccc2n1C + CC1(C)CCC(c2ccc(Cl)cc2)=C(CN2CCN(c3ccc(C(=O)NS(=O)(=O)c4ccc(N[C@H](CCN5CCOCC5)CSc5ccccc5)c(S(=O)(=O)C(F)(F)F)c4)cc3)CC2)C1 [Navitoclax] (partner 0.5 µM)
Summary of the method: as §1

[2] = compound: COc1cc(-c2nn([C@H]3CC[C@H](N4CCN(C(C)=O)CC4)CC3)c3ncnc(N)c23)ccc1NC(=O)c1cc2ccccc2n1C + CC(=O)c1c(C)c2cnc(Nc3ccc(N4CCNCC4)cn3)nc2n(C2CCCC2)c1=O [Palbociclib] (partner 0.5 µM)
Summary of the method: as §1

[3] = compound: COc1cc(-c2nn([C@H]3CC[C@H](N4CCN(C(C)=O)CC4)CC3)c3ncnc(N)c23)ccc1NC(=O)c1cc2ccccc2n1C + Nc1ncn([C@H]2C[C@H](O)[C@@H](CO)O2)c(=O)n1 [Decitabine] (partner 2 µM)
Summary of the method: as §1

Row | Cell Line | relative viability (Midostaurin + Linsitinib; first compound 0.01 µM) | relative viability (Midostaurin + Linsitinib; first compound 0.03162 µM) | relative viability (Midostaurin + Linsitinib; first compound 0.1 µM) | relative viability (Midostaurin + Linsitinib; first compound 0.3162 µM) | relative viability (Midostaurin + Crizotinib; first compound 0.01 µM) | relative viability (Midostaurin + Crizotinib; first compound 0.03162 µM) | relative viability (Midostaurin + Crizotinib; first compound 0.1 µM) | relative viability (Midostaurin + Crizotinib; first compound 0.3162 µM) | relative viability ([1]; first compound 0.0128 µM) | relative viability ([1]; first compound 0.04048 µM) | relative viability ([1]; first compound 0.128 µM) | relative viability ([1]; first compound 1.28 µM) | relative viability ([2]; first compound 0.0128 µM) | relative viability ([2]; first compound 0.04048 µM) | relative viability ([2]; first compound 0.128 µM) | relative viability ([2]; first compound 1.28 µM) | relative viability ([3]; first compound 0.0128 µM) | relative viability ([3]; first compound 0.04048 µM) | relative viability ([3]; first compound 0.128 µM) | relative viability ([3]; first compound 1.28 µM)
1 | Calu-6 | 0.946 | 0.889 | 1 | 0.922 | 0.685 | 0.768 | 0.859 | 0.617 | 0.881 | 0.983 | 0.817 | 0.722 | – | – | – | – | – | – | – | –
2 | ChaGo-K-1 | – | – | – | – | 1.09 | 1.15 | 1.05 | 1.03 | 0.958 | 1.05 | 0.881 | 0.986 | 0.925 | 0.985 | 0.873 | 0.668 | 0.493 | 0.513 | 0.497 | 0.508
3 | EBC-1 | 0.901 | 0.735 | 0.873 | 0.24 | 0.164 | 0.231 | 0.197 | 0.2 | 0.422 | 0.501 | 0.422 | 0.339 | – | – | – | – | – | – | – | –
4 | EKVX | 0.953 | 1.03 | 0.943 | 0.892 | 1.07 | 0.988 | 0.868 | 0.929 | 1.05 | 1.03 | 0.957 | 0.384 | 0.383 | 0.47 | 0.357 | 0.271 | 0.372 | 0.36 | 0.349 | 0.288
5 | EMC-BAC-2 | 0.84 | 0.777 | 0.669 | 0.765 | 0.704 | 0.754 | 0.647 | 0.696 | 1.19 | 1.08 | 1.15 | 1.05 | 0.551 | 0.582 | 0.528 | 0.514 | 1 | 0.941 | 0.913 | 0.955
6 | EPLC-272H | 1.08 | 1.11 | 1.17 | 1.22 | 0.875 | 0.998 | 1.07 | 0.926 | 1.13 | 1.05 | 0.983 | 0.871 | 0.352 | 0.327 | 0.337 | 0.301 | 0.444 | 0.315 | 0.342 | 0.312
7 | H3255 | 0.948 | 0.875 | 0.953 | 1 | 0.829 | 0.718 | 0.937 | 0.892 | 0.398 | 0.441 | 0.466 | 0.259 | 0.324 | 0.316 | 0.349 | 0.318 | 0.617 | 0.504 | 0.609 | 0.472
8 | HARA | 0.936 | 0.979 | 0.877 | 0.969 | 0.902 | 0.977 | 0.86 | 0.958 | 1.14 | 1.24 | 1.14 | 1 | 0.268 | 0.241 | 0.246 | 0.185 | 0.609 | 0.699 | 0.612 | 0.381
9 | HCC-15 | 0.886 | 0.898 | 0.904 | 0.818 | 0.842 | 0.829 | 0.841 | 0.847 | 0.755 | 0.59 | 0.672 | 0.454 | 0.555 | 0.663 | 0.839 | 0.705 | 0.822 | 0.589 | 0.638 | 0.567
